Assay results published in patent US11247976B2, “Synthetic ligands that modulate the activity of the RhlR quorum sensing receptor” (Wisconsin Alumni Research Foundation, priority 2016, dated 2022).

Assays:
RhlR = target: T1, RhlR (Pseudomonas aeruginosa, UniProt P54292); assay: P. aeruginosa RhlR reporter antagonism assay vs 10 μM BHL (PAO-JP2/prhlI-LVAgfp); format: cell-based
T1 construct: expressed in transfected cells; host or cells: E. coli JLD271 (ΔsdiA) with pJN105R2 (arabinose-induced) and pSC11-rhlI*
Protocol: FIGS. 10A and B illustrate exemplary dose-response curves for RhlR antagonism in the E. coli JLD271/pJN105R2/pSC11-rhlI* reporter strain vs. 10 μM BHL (FIG. 10A) and in the P. aeruginosa PAO-JP2/prhlI-LVAgfp reporter strain vs. 10 μM BHL (FIG. 10B).
To evaluate the RhlR-modulatory activities of selected compounds in P. aeruginosa, the ΔlasIrhlI strain PAO-JP2 harboring plasmid prhlI-LVAgfp was used as previously reported.^38 Briefly, a subculture was prepared by diluting an overnight culture 1:100 in fresh LB and was grown to OD600=0.3. […] Subculture was treated with 100 nM OdDHL (to induce native expression of RhlR) by adding the appropriate amount of OdDHL stock solution in DMSO. The subculture was then dispensed ([…] aliquots) into each synthetic compound-containing well of the microtiter plate.
Plates were incubated at 37° C. for 6 h, and GFP production was monitored by using a Synergy 2 plate reader (λex=500 nm, λem=540 nm; BioTek, Winooski, Vt.) and quantified with Gen5 1.05 software (BioTek). The final OD600 for each well was measured to normalize GFP production to cell density. All synthetic compounds were tested in triplicate, and three separate trials were performed with unique cultures. Agonism dose-response analyses were performed by testing compounds over a range of concentrations with the RhlR reporter.

LasR = target: T2, LasR (Pseudomonas aeruginosa, UniProt P25084); assay: Selectivity of RhlR antagonism over LasR antagonism (E. coli LasR reporter, vs 2 nM OdDHL); format: cell-based, P. aeruginosa; conditions: RhlR % antagonism divided by LasR % antagonism
T2 construct: expressed in transfected cells; host or cells: E. coli JLD271 (ΔsdiA) with pJN105L and pSC11
Protocol: All media and reagents for bacterial culture were purchased from commercial sources. Bacteria were cultured in Luria-Bertani broth (LB) at 37° C. with shaking at 200 rpm unless otherwise noted. The bacterial reporter strains used for this study were (i) the heterologous E. coli strain JLD271 (ΔsdiA) harboring the RhlR expression plasmid pJN105R2 and the rhlI-lacZ transcriptional fusion reporter pSC11-rhlI*, (ii) the heterologous E. coli strain JLD271 (ΔsdiA) harboring the LasR expression plasmid pJN105L and the […] transcriptional fusion reporter pSC11, and (iii) the P. aeruginosa strain PAO-JP2 (ΔlasrhlI) harboring the rhlI-gfp transcriptional fusion reporter prhlI-LVAgfp. […]
To evaluate the modulatory activities of library compounds on RhlR and LasR using E. coli reporters, the strains JLD271/pJN105R2/pSC11-rhlI* and JLD271/pJN105L/pSC11 were used, respectively, as previously described.^38, 51 The following modifications were used in the RhlR agonism reporter assay, non-native compounds (10 μM or 1 mM) were compared to 1 mM BHL as the positive control. […] For RhlR agonism assays, activities of test compounds were measured relative to 1 mM BHL (the concentration required to induce a maximal level of RhlR activity). […] Activity was measured relative to 10 μM BHL. Inhibition was calculated by subtracting 100% from the relative activity value. […]

[1] = Hydrolytic stability in buffers of varying pH by HPLC; format: physicochemical; conditions: room temperature
Protocol: To assess the relative stability of the thiolactone and homoserine lactone moieties, stability studies were performed as reported previously,^53 with the following changes. Compounds RN22 and E22 (50 μM) were dissolved in either 1 mM 2-(N-morpholino)-ethanesulfonic acid (MES) buffer at pH 6, or 1 mM tris(hydroxymethyl)-aminomethane (TRIS) buffer at pH 7, pH 8, or pH 9. Solutions were placed static at room temperature, and 150 μL aliquots were taken every two hours for eight hours, then again at 24 hours. Samples were immediately separated via HPLC, and the area under the curve (AUC) at 220 nm was calculated and compared to the area at t=0. […] Degradation of both compounds to the hydrolysis product was confirmed via mass spectrometry of the resulting byproduct peak.
P. aeruginosa media is observed to become more alkaline over time, making the hydrolytic instability of the homoserine lactone head group a concern in developing AHL-type modulators for use in the wild-type organism. […] To evaluate their stability in a more direct assay, the stability of thiolactone RN22 relative to its lactone homolog E22 was monitored over time and at varying pH values using HPLC. The amount of compound RN22 remaining over 24 h was compared to E22. […] Degradation products were confirmed to be the hydrolyzed lactone head groups via mass spectroscopy.

T1 sequence (P54292 whole entry): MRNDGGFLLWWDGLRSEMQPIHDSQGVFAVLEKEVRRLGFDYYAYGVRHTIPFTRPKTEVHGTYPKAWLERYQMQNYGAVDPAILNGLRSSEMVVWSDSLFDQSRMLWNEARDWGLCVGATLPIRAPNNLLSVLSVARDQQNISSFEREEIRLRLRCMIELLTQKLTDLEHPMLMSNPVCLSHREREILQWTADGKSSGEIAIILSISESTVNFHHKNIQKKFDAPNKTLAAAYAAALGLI
T2 sequence (P25084 whole entry): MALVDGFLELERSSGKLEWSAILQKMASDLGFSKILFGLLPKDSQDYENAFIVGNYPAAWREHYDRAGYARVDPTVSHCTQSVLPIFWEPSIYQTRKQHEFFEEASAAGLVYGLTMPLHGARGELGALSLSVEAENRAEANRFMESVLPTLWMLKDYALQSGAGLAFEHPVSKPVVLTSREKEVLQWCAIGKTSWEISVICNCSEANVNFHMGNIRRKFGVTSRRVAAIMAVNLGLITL

**Q.** With `O=C(COc1ccc(I)cc1)N[C@H]1CCSC1=O` [RN22] as the molecule, how does the “concentration blocking native ligand activity by 50%, relative to EC50 of native ligand” value (RhlR; P. aeruginosa) read?
**A.** less than 4 fold

**Q.** And the “RhlR antagonist activity in words” value (RhlR; P. aeruginosa reporter vs 10 μM BHL)?
**A.** maintained its strong inhibitory profile

**Q.** And the IC50 (RhlR; P. aeruginosa reporter vs 10 μM BHL, read-out: IC50 for RhlR inhibition)?
**A.** 31 µM

**Q.** What about the “Maximum Inhibition (%)” value (RhlR; P. aeruginosa reporter, relative to activation of 10 μM BHL alone) of the same molecule?
**A.** 85%

**Q.** What about the “Fold selectivity of RhlR antagonist over LasR antagonism” value (LasR; tested concentration 1 mM) of the same molecule?
**A.** 74 fold

**Q.** What about the “Fold selectivity of RhlR antagonist over LasR antagonism” value (LasR; tested concentration 10 μm) of the same molecule?
**A.** 1.5 fold

**Q.** And the half-life at 50 μM ([1]; pH 6, 1 mM MES buffer)?
**A.** 44 days

**Q.** What about the half-life at 50 μM ([1]; pH 7, 1 mM TRIS buffer) of the same molecule?
**A.** 47.2 days

**Q.** And the half-life at 50 μM ([1]; pH 8, 1 mM TRIS buffer)?
**A.** 9.88 days

**Q.** What about the half-life at 50 μM ([1]; pH 9, 1 mM TRIS buffer) of the same molecule?
**A.** 2.18 days
